# Earlier results as cited in PubChem BioAssay AID1259409 (Chemical Carcinogenesis Research Information System (CCRIS), 2018).
# Tested on: rodent chemically induced tumor inhibition, incidence and multiplicity
# Test: CCRIS tumor inhibitor studies
# Conditions: Carcinogen: DIETHYLNITROSAMINE, 55-18-5, N-METHYLNITROSOUREA, 684-93-5, 1,2-DIMETHYLHYDRAZINE, 540-73-8, N-BUTYL-N-(4-HYDROXYB, Carcinogen: DIETHYLNITROSAMINE, 55-18-5, N-METHYLNITROSOUREA, 684-93-5, 1,2-DIMETHYLHYDRAZINE, 540-73-8, N-BUTYL-N-(4-HYDROXYB, Dose [Inhibitor]: 0, Route [Inhibitor]: ORAL, Species: RAT, Strain/Sex: F344/MALE, Dose [Carcinogen]: 100 MG/KG DEN ONCE, 20 MG/KG MNU 4 TIMES, 40 MG/KG DMH 4 TIMES, 0.05% BBN IN DRINKING WATER FOR 2 WK, 0.1% DHPN IN D, Dose [Carcinogen]: 100 MG/KG DEN ONCE, 20 MG/KG MNU 4 TIMES, 40 MG/KG DMH 4 TIMES, 0.05% BBN IN DRINKING WATER FOR 2 WK, 0.1% DHPN IN D, Promoter: NONE USED
structure (smiles),measurement,setting,value
O=c1oc2c(O)c(O)cc3c(=O)oc4c(O)c(O)cc1c4c23,"tumour outcome (control, treated, inhibition, significance)","1% IN DIET FOR 4 WK BEGINNING 1 DAY PRIOR TO CARCINOGEN TREATMENT (STUDY DURATION: 36 WK), Target Tissue: Type of Lesion: SMALL INTESTINE: CARCINOMA","5/14 (36%), 0/12 (0%), 100%, p<0.05"
same,"tumour outcome (control, treated, inhibition, significance)","1% IN DIET FOR 4 WK BEGINNING 1 DAY PROIR TO CARCINOGEN TREATMENT (STUDY DURATION: 36 WK), Target Tissue: Type of Lesion: LUNG: ADENOMA","6/14 (43%), 1/12 (8%), 81%, not significant"
same,"tumour outcome (control, treated, inhibition, significance)","1% IN DIET FOR 32 WK BEGINNING POST CARCINOGEN TREATMENT (STUDY DURATION: 36 WK), Target Tissue: Type of Lesion: KIDNEY: ADENOMA","4/14 (29%), 2/13 (15%), 48%, not significant"
same,"tumour outcome (control, treated, inhibition, significance)","1% IN DIET FOR 32 WK BEGINNING POST CARCINOGEN TREATMENT (STUDY DURATION: 36 WK), Target Tissue: Type of Lesion: KIDNEY: NEPHROBLASTOMA","7/14 (50%), 5/13 (38%), 24%, not significant"
same,"tumour outcome (control, treated, inhibition, significance)","1% IN DIET FOR 32 WK BEGINNING POST CARCINOGEN TREATMENT (STUDY DURATION: 36 WK), Target Tissue: Type of Lesion: LARGE INTESTINE: CARCINOMA","3/14 (21%), 6/12 (50%), -138%, not significant"
same,"tumour outcome (control, treated, inhibition, significance)","1% IN DIET FOR 32 WK BEGINNING POST CARCINOGEN TREATMENT (STUDY DURATION: 36 WK), Target Tissue: Type of Lesion: SMALL INTESTINE: ADENOMA","6/14 (43%), 0/12 (0%), 100%, < p<0.05"
